Assay results from PubChem BioAssay (NCI).
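Exposure lasted 48 hours, with cells grown in 96-well plates and compounds tested at five concentrations. GI50 marks 50% less growth. TGI marks complete inhibition of growth.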

Legend:
Assay in all cases: NCI tumour cell line growth inhibition, 48 h
KM20L2 colon = system: KM20L2 colon
P388 leukemia = system: P388 leukemia
SNB-78 CNS = system: SNB-78 CNS
786-0 renal = system: 786-0 renal
A498 renal = system: A498 renal
A549 NSCLC = system: A549 NSCLC
CAKI-1 renal = system: CAKI-1 renal
CCRF-CEM leukemia = system: CCRF-CEM leukemia
COLO 205 colon = system: COLO 205 colon
DLD-1 colon = system: DLD-1 colon
DMS 114 small cell lung = system: DMS 114 small cell lung
DMS 273 small cell lung = system: DMS 273 small cell lung
EKVX NSCLC = system: EKVX NSCLC
HCT-116 colon = system: HCT-116 colon
HCT-15 colon = system: HCT-15 colon
HL-60(TB) leukemia = system: HL-60(TB) leukemia
HOP-18 NSCLC = system: HOP-18 NSCLC
HOP-62 NSCLC = system: HOP-62 NSCLC
HOP-92 NSCLC = system: HOP-92 NSCLC
HT29 colon = system: HT29 colon
IGROV1 ovarian = system: IGROV1 ovarian
K-562 leukemia = system: K-562 leukemia
KM12 colon = system: KM12 colon
LOX IMVI melanoma = system: LOX IMVI melanoma
LXFL 529 NSCLC = system: LXFL 529 NSCLC
M14 melanoma = system: M14 melanoma
M19-MEL melanoma = system: M19-MEL melanoma
MALME-3M melanoma = system: MALME-3M melanoma
MOLT-4 leukemia = system: MOLT-4 leukemia
NCI-H226 lung = system: NCI-H226 lung
NCI-H23 lung = system: NCI-H23 lung
NCI-H460 lung = system: NCI-H460 lung
NCI-H522 lung = system: NCI-H522 lung
OVCAR-3 ovarian = system: OVCAR-3 ovarian
OVCAR-4 ovarian = system: OVCAR-4 ovarian
OVCAR-5 ovarian = system: OVCAR-5 ovarian
OVCAR-8 ovarian = system: OVCAR-8 ovarian
RPMI-8226 leukemia = system: RPMI-8226 leukemia
RXF 393 renal = system: RXF 393 renal
RXF-631 renal = system: RXF-631 renal
SF-268 CNS = system: SF-268 CNS
SF-295 CNS = system: SF-295 CNS
SK-MEL-2 melanoma = system: SK-MEL-2 melanoma
SK-MEL-28 melanoma = system: SK-MEL-28 melanoma
SK-MEL-5 melanoma = system: SK-MEL-5 melanoma
SK-OV-3 ovarian = system: SK-OV-3 ovarian
SN12C renal = system: SN12C renal
SNB-19 CNS = system: SNB-19 CNS
SNB-75 CNS = system: SNB-75 CNS
SR leukemia = system: SR leukemia
SW-620 colon = system: SW-620 colon
TK-10 renal = system: TK-10 renal
U251 CNS = system: U251 CNS
UACC-257 melanoma = system: UACC-257 melanoma
UACC-62 melanoma = system: UACC-62 melanoma
UO-31 renal = system: UO-31 renal
XF 498 CNS = system: XF 498 CNS

CCc1c2c(nc3ccc(OC(=O)N4CCC(N5CCCCC5)CC4)cc13)-c1cc3c(c(=O)n1C2)COC(=O)[C@]3(O)CC
GI50 (KM20L2 colon): 17.2 µM
TGI (KM20L2 colon): 66.3 µM
GI50 (P388 leukemia): 10.1 µM
TGI (P388 leukemia): 40.2 µM
GI50 (SNB-78 CNS): 53.7 µM
TGI (SNB-78 CNS): > 100 µM

O=[N+]([O-])c1ccc(Sc2c3ccccc3nc3cc(Cl)ccc23)cc1
GI50 (786-0 renal): > 100 µM
TGI (786-0 renal): > 100 µM
GI50 (A498 renal): > 100 µM
TGI (A498 renal): > 100 µM
GI50 (A549 NSCLC): > 100 µM
TGI (A549 NSCLC): > 100 µM
GI50 (CAKI-1 renal): > 100 µM
TGI (CAKI-1 renal): > 100 µM
TGI (CCRF-CEM leukemia): > 100 µM
GI50 (COLO 205 colon): > 100 µM
TGI (COLO 205 colon): > 100 µM
GI50 (DLD-1 colon): > 100 µM
TGI (DLD-1 colon): > 100 µM
GI50 (DMS 114 small cell lung): > 100 µM
TGI (DMS 114 small cell lung): > 100 µM
TGI (DMS 273 small cell lung): > 1 µM
GI50 (EKVX NSCLC): > 100 µM
TGI (EKVX NSCLC): > 100 µM
GI50 (HCT-116 colon): > 100 µM
TGI (HCT-116 colon): > 100 µM
GI50 (HCT-15 colon): > 100 µM
TGI (HCT-15 colon): > 100 µM
TGI (HL-60(TB) leukemia): > 100 µM
GI50 (HOP-18 NSCLC): > 100 µM
TGI (HOP-18 NSCLC): > 100 µM
GI50 (HOP-62 NSCLC): > 100 µM
TGI (HOP-62 NSCLC): > 100 µM
TGI (HOP-92 NSCLC): > 100 µM
TGI (HT29 colon): > 100 µM
GI50 (IGROV1 ovarian): > 100 µM
TGI (IGROV1 ovarian): > 100 µM
GI50 (K-562 leukemia): > 100 µM
TGI (K-562 leukemia): > 100 µM
GI50 (KM12 colon): > 100 µM
TGI (KM12 colon): > 100 µM
GI50 (KM20L2 colon): > 100 µM
TGI (KM20L2 colon): > 100 µM
GI50 (LOX IMVI melanoma): > 100 µM
TGI (LOX IMVI melanoma): > 100 µM
GI50 (LXFL 529 NSCLC): > 100 µM
TGI (LXFL 529 NSCLC): > 100 µM
GI50 (M14 melanoma): > 100 µM
TGI (M14 melanoma): > 100 µM
GI50 (M19-MEL melanoma): > 100 µM
TGI (M19-MEL melanoma): > 100 µM
GI50 (MALME-3M melanoma): > 100 µM
TGI (MALME-3M melanoma): > 100 µM
TGI (MOLT-4 leukemia): > 100 µM
GI50 (NCI-H226 lung): > 100 µM
TGI (NCI-H226 lung): > 100 µM
GI50 (NCI-H23 lung): > 100 µM
TGI (NCI-H23 lung): > 100 µM
GI50 (NCI-H460 lung): > 100 µM
TGI (NCI-H460 lung): > 100 µM
GI50 (NCI-H522 lung): > 100 µM
TGI (NCI-H522 lung): > 100 µM
GI50 (OVCAR-3 ovarian): > 100 µM
TGI (OVCAR-3 ovarian): > 100 µM
GI50 (OVCAR-4 ovarian): > 100 µM
TGI (OVCAR-4 ovarian): > 100 µM
GI50 (OVCAR-5 ovarian): > 100 µM
TGI (OVCAR-5 ovarian): > 100 µM
GI50 (OVCAR-8 ovarian): > 100 µM
TGI (OVCAR-8 ovarian): > 100 µM
TGI (RPMI-8226 leukemia): > 100 µM
TGI (RXF 393 renal): > 100 µM
GI50 (RXF-631 renal): > 100 µM
TGI (RXF-631 renal): > 100 µM
GI50 (SF-268 CNS): > 100 µM
TGI (SF-268 CNS): > 100 µM
GI50 (SF-295 CNS): > 100 µM
TGI (SF-295 CNS): > 100 µM
GI50 (SK-MEL-2 melanoma): > 100 µM
TGI (SK-MEL-2 melanoma): > 100 µM
GI50 (SK-MEL-28 melanoma): > 100 µM
TGI (SK-MEL-28 melanoma): > 100 µM
GI50 (SK-MEL-5 melanoma): > 100 µM
TGI (SK-MEL-5 melanoma): > 100 µM
GI50 (SK-OV-3 ovarian): > 100 µM
TGI (SK-OV-3 ovarian): > 100 µM
GI50 (SN12C renal): > 100 µM
TGI (SN12C renal): > 100 µM
GI50 (SNB-19 CNS): > 100 µM
TGI (SNB-19 CNS): > 100 µM
TGI (SNB-75 CNS): > 100 µM
TGI (SR leukemia): 68.1 µM
GI50 (SW-620 colon): > 100 µM
TGI (SW-620 colon): > 100 µM
GI50 (TK-10 renal): > 100 µM
TGI (TK-10 renal): > 100 µM
GI50 (U251 CNS): > 100 µM
TGI (U251 CNS): > 100 µM
GI50 (UACC-257 melanoma): > 100 µM
TGI (UACC-257 melanoma): > 100 µM
GI50 (UACC-62 melanoma): > 100 µM
TGI (UACC-62 melanoma): > 100 µM
GI50 (UO-31 renal): > 100 µM
TGI (UO-31 renal): > 100 µM
TGI (XF 498 CNS): 99.6 µM
